Values quoted from earlier work as cited in patent US20230357519A1, “REMOVAL OF ODORANTS FROM POST-CONSUMER POLYOLEFIN WASTE” (Borealis AG, priority 2020, published 2023).

Conditions: octanol/water; not determined experimentally, generally accepted literature values

SMILES | log Poctanol/water
CC(O)C(C)O (centres unmarked) [2,3-Butanediol] | −0.92^1
CCCCC(C)CCCC(C)C (centres unmarked) [2,6-Dimethyl decane] | 6.09^6
CCCCC(CC)CO (centres unmarked) [2-Ethyl-1-hexanol] | 2.73^3
CCCCCCCC(C)=O [2-Nonanone] | 3.16^2
CCCC(C)=O [2-Pentanone] | 0.84^2
CCCCC(CCCC)CC(C)C [5-(2-Methylpropyl)-nonane] | 5.03^5
C=C(C)[C@H]1CC=C(C)CC1 [D-Limonene] | 4.57^4
C=Cc1ccccc1 [Styrene] | 3.05^2
